According to patent US8759295B2, “Peptide-peptidase inhibitor conjugates and methods of using same” (Amylin Pharmaceuticals, LLC, priority 2006, dated 2014):
Starred links: 1 amine or outer side, 2 acyl side, 3 side chain; linkers in the order of their positions; H or OH if unused. Non-standard residues stand in square brackets, D forms with d. Residues, ends and D or L forms follow the SMILES beside them. *: point of attachment. Pyrrolidine(2S-CN) = N#C[C@@H]1CCCN1*; εLys = N[C@@H](CCCCN[*:1])C(=O)[*:2]; AEEA = NCCOCCOCC(=O)O

Tests used:
plasma carboxypeptidase = assay: Carboxypeptidase activity assay in human plasma, PYY(3-35) formation; format: biochemical; settings: for inhibition of formation of PYY(3-35): 0.5 mM, human plasma
Description: Carboxypeptidase activity assays were performed in the presence of various agents to test for carboxypeptidase inhibitor activity of the agents.
The remainder of the sample was placed in an incubator at 37° C., mixing at 600 RPM for sixty minutes. At 10 minute intervals, a 100 μL sample of the mixture was removed and transferred to a separate microcentrifuge tubes. Following the transfer of the 100 μL sample at the zero time point and each 10 minute interval, each collected sample was extracted by slow addition of 100 μl cold 0.2% formic acid:acetonitrile, while mixing. After addition of the acetonitrile solution, the sample was vortex mixed at high speed for 15 seconds. The extracted samples were stored at −20° C. for at least 20 minutes and then centrifuged at 11,000×g for 10 minutes at 5° C. The supernatant of each sample was transferred to a new microcentrifuge tube, centrifuged again, and finally transferred for LC/MS analysis. The MS analysis was a Q1 single ion monitoring method that detects the most intense ion of the parent molecule and the peptide fragment of interest.

[1] = human, kidney or brush border membranes, 4 h, pH 7.4
Description: The tubes were incubated in VorTemp 56™ (Eurotech Labs, UK) at 37° C. vortexed at 500 RPM. At time points of 0, 1, 2, 3, 4, and 5 hours, 200 μl STOP solution (50% ACN, 1% formic acid) was added to a given tube, and the samples were allowed to incubate until the end of the experiment. The samples were collected after 5 hours, centrifuged, and 200 μl of the supernatants were transferred into mass spectrometry vials. The intensities of the mother ions in each vial were analyzed with API 150EX™ mass spectrometer (Applied Biosystems, Foster City, Calif.) and quantified using the ANALYST™ program.
The hKBBM assay was also performed in the presence of valinepyrrolidide, a DPP-IV inhibitor.

NIH/Swiss mice = assay: Oral glucose tolerance test (OGTT), glucose lowering; settings: IP, 2 hour fasted mice
[2] = system: Dahl salt-sensitive (DSS) male rats; assay: Congestive heart failure (CHF) in vivo assay; settings: week 5, high-salt diet, 10 μg/kg/day sc infusion
Description: In this assay, Dahl salt-sensitive (DSS) male rats were weaned at 21 days of age, maintained on a low-salt (LS) diet (0.2% NaCl) for 2 weeks. Rats were anesthetized with ketamine/xylazine (50 mg/kg/10 mg/kg, IP) and telemetry transmitters (Data Sciences, Inc.) were inserted to the aortic artery when rats were at 5 weeks of age. After surgery, the rats were allowed 10 days to recuperate before their BP (systolic and diastolic pressures) was recorded.
HS control animals (n=10 rats) were administered vehicle (50% DMSO) and fed HS in the same manner. LS control animals (n=5 rats) were maintained on the LS diet.

[3] = target: T1, human GIP receptor (HEK-GIPR membranes) (Homo sapiens, UniProt P48546); assay: GIP receptor binding displacement assay (RBA); settings: read-out: GIP RBA % inhibition at 10 nM; 10 nM conjugate, 30 pM 125I-GIP
T1 construct: expressed in transfected cells
T1 sequence (P48546 22-466): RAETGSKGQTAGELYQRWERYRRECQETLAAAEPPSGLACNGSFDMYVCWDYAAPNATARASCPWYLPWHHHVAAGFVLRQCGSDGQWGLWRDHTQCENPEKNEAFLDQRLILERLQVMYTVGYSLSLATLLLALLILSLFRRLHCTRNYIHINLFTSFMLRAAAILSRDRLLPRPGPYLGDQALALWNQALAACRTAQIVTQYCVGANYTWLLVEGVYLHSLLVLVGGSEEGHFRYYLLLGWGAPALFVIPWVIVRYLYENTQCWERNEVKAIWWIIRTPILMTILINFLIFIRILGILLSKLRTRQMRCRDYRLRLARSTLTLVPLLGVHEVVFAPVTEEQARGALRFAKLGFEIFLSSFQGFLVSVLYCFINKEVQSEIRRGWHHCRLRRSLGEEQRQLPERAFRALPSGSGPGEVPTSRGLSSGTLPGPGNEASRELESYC
Description: Membrane fractions were prepared from confluent cell cultures of HEK-GIPR, snap frozen, and stored at −80° C. until use. […] Reactions were allowed to proceed to equilibrium for 90 minutes at room temperature with constant shaking. The reaction mixtures were then filtered through 96-well glass fiber filter plates separating bound and unbound fractions of radioligand.

Recombinant DPP-IV = Recombinant DPP-IV (Homo sapiens, UniProt P27487); assay: DPP-IV inhibition assay with chromogenic substrate; format: biochemical; design: purchased Chemicon International, Inc., Temecula, Calif; settings: mean SEM of at least three determinations
Recombinant DPP-IV, sequence (P27487 whole entry, species assumed): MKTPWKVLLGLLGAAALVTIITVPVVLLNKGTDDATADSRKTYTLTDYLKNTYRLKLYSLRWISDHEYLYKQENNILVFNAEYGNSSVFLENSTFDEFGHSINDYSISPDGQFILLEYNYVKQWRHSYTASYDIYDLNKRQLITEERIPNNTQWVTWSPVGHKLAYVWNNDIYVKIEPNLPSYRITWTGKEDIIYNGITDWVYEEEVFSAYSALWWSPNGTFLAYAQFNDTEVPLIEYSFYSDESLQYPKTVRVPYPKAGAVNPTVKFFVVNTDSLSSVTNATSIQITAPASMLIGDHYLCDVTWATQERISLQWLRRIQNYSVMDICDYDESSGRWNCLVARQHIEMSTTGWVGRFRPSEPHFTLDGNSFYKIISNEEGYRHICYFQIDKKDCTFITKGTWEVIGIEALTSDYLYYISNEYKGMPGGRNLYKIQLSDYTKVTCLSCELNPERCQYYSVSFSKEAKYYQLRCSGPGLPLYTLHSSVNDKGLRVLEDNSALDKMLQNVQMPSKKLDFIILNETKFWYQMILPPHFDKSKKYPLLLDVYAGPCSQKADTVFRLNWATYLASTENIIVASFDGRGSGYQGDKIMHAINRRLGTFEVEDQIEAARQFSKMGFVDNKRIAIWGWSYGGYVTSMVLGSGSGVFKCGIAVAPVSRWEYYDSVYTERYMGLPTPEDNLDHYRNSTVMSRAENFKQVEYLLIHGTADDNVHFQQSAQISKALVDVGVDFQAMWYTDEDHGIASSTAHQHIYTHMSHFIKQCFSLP
Description: The reactions were initiated by adding 1 μl DPP-IV enzyme (0.05 mU) into each well and the absorbance at 410 nm was measured with 20-sec intervals over a 30-min period using a SpectraMax plate reader (Molecular Devices, Corp., Sunnyvale, Calif.). The velocities of each reaction at different inhibitor concentrations were calculated and the reciprocal velocities were plotted against inhibitor concentrations in Dixon graphs. The IC50 values of reaction velocities were calculated through fitting the plots with linear equation.
The IC50 (nM) values in Table 5 are expressed as the mean SEM of at least three independent determinations.

Question: For `NCCc1ccc(S(=O)(=O)F)cc1` [AEBSF, 4-(2-aminoethyl)-benzenesulfonylfluoride, reference compound], which “inhibition of plasma carboxypeptidase activity” value (plasma carboxypeptidase; protease inhibitor at 1 mM) is on record?
Answer: inhibited

Question: Which results are given for `CC[C@H](C)[C@H](NC(=O)[C@H](Cc1ccccc1)NC(=O)[C@H](CCC(=O)O)NC(=O)[C@H](CCCCN)NC(=O)[C@H](C)NC(=O)[C@H](C)NC(=O)[C@H](CCC(N)=O)NC(=O)CNC(=O)[C@H](CCC(=O)O)NC(=O)[C@H](CC(C)C)NC(=O)[C@H](Cc1ccc(O)cc1)NC(=O)[C@H](CO)NC(=O)[C@H](CO)NC(=O)[C@@H](NC(=O)[C@H](CC(=O)O)NC(=O)[C@H](CO)NC(=O)[C@@H](NC(=O)[C@H](Cc1ccccc1)NC(=O)[C@@H](NC(=O)CNC(=O)[C@H](CCC(=O)O)NC(=O)[C@H](C)NC(=O)[C@H](Cc1c[nH]cn1)NC(=O)COCCOCCNC(=O)[C@@H]1CCCN1C(=O)[C@H](C)NC(CCc1ccccc1)C(=O)O)[C@@H](C)O)[C@@H](C)O)C(C)C)C(=O)N[C@@H](C)C(=O)N[C@@H](Cc1c[nH]c2ccccc12)C(=O)N[C@@H](CC(C)C)C(=O)N[C@H](C(=O)N[C@@H](CCCCN)C(=O)NCC(=O)N[C@@H](CCCNC(=N)N)C(N)=O)C(C)C` (stereo partly drawn) [Compound 4983, (R,S)-1-[N^2-(1-carboxy-3-phenylpropyl)-L-ala]-L-pro-8-amino-3,6-dioxaoctanoyl-GLP-1-(7-36) amide]?
Answer: intact conjugate compound present [1]: greater than 80%; glucose lowering in OGTT (FIGS. 7, 8) (NIH/Swiss mice): retain the glucose-lowering activity of GLP-1

Question: Which results are given for `CC[C@H](C)[C@H](NC(=O)[C@H](Cc1ccccc1)NC(=O)[C@H](CC(C)C)NC(=O)[C@H](CCCNC(=N)N)NC(=O)[C@@H](NC(=O)[C@H](C)NC(=O)[C@H](CCC(=O)O)NC(=O)[C@H](CCC(=O)O)NC(=O)[C@H](CCC(=O)O)NC(=O)[C@H](CC(C)C)NC(=O)[C@H](CCC(N)=O)NC(=O)[C@H](CCCCN)NC(=O)[C@H](CO)NC(=O)[C@H](CC(C)C)NC(=O)[C@H](CC(=O)O)NC(=O)[C@H](CO)NC(=O)[C@@H](NC(=O)[C@H](Cc1ccccc1)NC(=O)[C@@H](NC(=O)CNC(=O)[C@H](CCC(=O)O)NC(=O)CNC(=O)[C@@H](N)Cc1c[nH]cn1)[C@@H](C)O)[C@@H](C)O)C(C)C)C(=O)N[C@@H](CCC(=O)O)C(=O)N[C@@H](Cc1c[nH]c2ccccc12)C(=O)N[C@@H](CC(C)C)C(=O)N[C@@H](CCCCN)C(=O)N[C@@H](CCC(N)=O)C(=O)NCC(=O)NCC(=O)N1CCC[C@H]1C(=O)N[C@@H](CO)C(=O)N[C@@H](CCCCN)C(=O)N[C@@H](CCC(=O)O)C(=O)N[C@H](C(=O)N[C@H](C(=O)N[C@@H](CO)C(=O)NCCOCCOCCOCC(=O)NCCOCCOCC(=O)NCCCC[C@H](NC(CCc1ccccc1)C(=O)O)C(=O)N1CCC[C@H]1C(=O)O)[C@@H](C)CC)[C@@H](C)CC` (stereo partly shown) [Compound 5715]?
Answer: mean diastolic blood pressure [2]: 112 mmHg; mean heart rate [2]: 381; mean systolic blood pressure [2]: 161 mmHg

Question: What does the source list for `CC[C@H](C)[C@H](NC(=O)[C@H](CO)NC(=O)[C@H](Cc1ccc(O)cc1)NC(=O)[C@H](CC(=O)O)NC(=O)[C@H](CO)NC(=O)[C@@H](NC(=O)[C@H](Cc1ccccc1)NC(=O)[C@@H](NC(=O)CNC(=O)[C@H](CCC(=O)O)NC(=O)[C@H](C)NC(=O)[C@H](Cc1ccc(O)cc1)NC(=O)COCCOCCNC(=O)COCCOCCNC(=O)CC[C@H](N)C(=O)N1CCC[C@H]1C#N)[C@@H](C)O)[C@@H](C)CC)C(=O)N[C@@H](C)C(=O)N[C@@H](CCSC)C(=O)N[C@@H](CC(=O)O)C(=O)N[C@@H](CCCCN)C(=O)N[C@H](C(=O)N[C@@H](Cc1c[nH]cn1)C(=O)N[C@@H](CCC(N)=O)C(=O)N[C@@H](CCC(N)=O)C(=O)N[C@@H](CC(=O)O)C(=O)N[C@@H](Cc1ccccc1)C(=O)N[C@H](C(=O)N[C@@H](CC(N)=O)C(=O)N[C@@H](Cc1c[nH]c2ccccc12)C(=O)N[C@@H](CC(C)C)C(=O)N[C@@H](CC(C)C)C(=O)N[C@@H](C)C(=O)N[C@@H](CCC(N)=O)C(=O)N[C@@H](CCCCN)C(=O)O)C(C)C)[C@@H](C)CC` [N-(γ-L-Glu-2-(S)-cyanopyrrolidyl)-Ado-Ado) GIP(1-30)]?
Answer: inhibition at 0.01 µM [3]: 32%; IC50 (Recombinant DPP-IV): 64 ± 8 nM

Question: With `CNC(Cc1ccc(O)cc1)C(N)=O` (stereo not shown) [N-methyl-Tyr-NH2] as the compound, how does the “inhibition of formation of PYY(3-35)” value (plasma carboxypeptidase) read?
Answer: did not inhibit

Question: Which inhibition at 0.01 µM [3] does the source give for `CC[C@H](C)[C@H](NC(=O)[C@H](CO)NC(=O)[C@H](Cc1ccc(O)cc1)NC(=O)[C@H](CC(=O)O)NC(=O)[C@H](CO)NC(=O)[C@@H](NC(=O)[C@H](Cc1ccccc1)NC(=O)[C@@H](NC(=O)CNC(=O)[C@H](CCC(=O)O)NC(=O)[C@H](C)NC(=O)[C@@H](N)Cc1ccc(O)cc1)[C@@H](C)O)[C@@H](C)CC)C(=O)N[C@@H](C)C(=O)N[C@@H](CC(C)C)C(=O)N[C@@H](CC(=O)O)C(=O)N[C@@H](CCCCN)C(=O)N[C@H](C(=O)N[C@@H](Cc1c[nH]cn1)C(=O)N[C@@H](CCC(N)=O)C(=O)N[C@@H](CCC(N)=O)C(=O)N[C@@H](CC(=O)O)C(=O)N[C@@H](Cc1ccccc1)C(=O)N[C@H](C(=O)N[C@@H](CC(N)=O)C(=O)N[C@@H](Cc1c[nH]c2ccccc12)C(=O)N[C@@H](CC(C)C)C(=O)N[C@@H](CC(C)C)C(=O)N[C@@H](C)C(=O)N[C@@H](CCC(N)=O)C(=O)N[C@@H](CCCCN)C(=O)NCCOCCOCC(=O)NCCCC[C@H](N)C(=O)N1CCC[C@H]1C#N)C(C)C)[C@@H](C)CC` [[Leu^14]GIP(1-30)-Ado-Lys-N-ε-(2-(S)-cyano pyrrolidyl)] (H-YAEGTFISDYSIALDKIHQQDFVNWLLAQK[AEEA][εLys]-{Pyrrolidine(2S-CN)}) here?
Answer: 100%

Question: And the IC50 (Recombinant DPP-IV)?
Answer: 109 ± 1 nM

Question: With “^36N-methyl-Tyr-amide-PYY(22-36) (ASLRHYLNLVTRQRY; HELM PEPTIDE1{A.S.L.R.H.Y.L.N.L.V.T.R.Q.R.[meY].[am]}$$$$V2.0; N-terminus assumed; SMILES CC(C)C[C@H](NC(=O)[C@H](CO)NC(=O)[C@H](C)N)C(=O)N[C@@H](CCCNC(=N)N)C(=O)N[C@@H](Cc1c[nH]cn1)C(=O)N[C@@H](Cc1ccc(O)cc1)C(=O)N[C@@H](CC(C)C)C(=O)N[C@@H](CC(N)=O)C(=O)N[C@@H](CC(C)C)C(=O)N[C@H](C(=O)N[C@H](C(=O)N[C@@H](CCCNC(=N)N)C(=O)N[C@@H](CCC(N)=O)C(=O)N[C@@H](CCCNC(=N)N)C(=O)N(C)[C@@H](Cc1ccc(O)cc1)C(N)=O)[C@@H](C)O)C(C)C) [N-terminal truncation of ^36N-methyl-Tyr-amide-PYY(3-36)]” as the compound, how does the “inhibition of formation of PYY(3-35)” value (plasma carboxypeptidase) read?
Answer: measurable but lower activity

Question: For “^36N-methyl-Tyr-amide-PYY(34-36) (QRY; HELM PEPTIDE1{Q.R.[meY].[am]}$$$$V2.0; N-terminus assumed; SMILES CN(C(=O)[C@H](CCCNC(=N)N)NC(=O)[C@@H](N)CCC(N)=O)[C@@H](Cc1ccc(O)cc1)C(N)=O) [N-terminal truncation of ^36N-methyl-Tyr-amide-PYY(3-36)]”, which “inhibition of formation of PYY(3-35)” value (plasma carboxypeptidase) is on record?
Answer: did not inhibit
